Experimental data from ChEMBL document CHEMBL3856235, “Characterization of 3,3-dimethyl substituted N-aryl piperidines as potent microsomal prostaglandin E synthase-1 inhibitors” (Bioorg Med Chem Lett, 2016).
Blank lines part the entries; values can stand above or below the compound they belong to.

Assays:
Prostaglandin E synthase [1] = molecular target: T1, Prostaglandin E synthase (Homo sapiens, UniProt O14684)
T1 sequence (O14684 whole entry): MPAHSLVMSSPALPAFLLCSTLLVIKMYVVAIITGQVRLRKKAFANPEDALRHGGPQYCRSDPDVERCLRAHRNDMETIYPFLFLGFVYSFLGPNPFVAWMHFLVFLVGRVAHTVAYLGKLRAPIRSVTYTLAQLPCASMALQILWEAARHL
Description: Inhibition of mPGES-1 in human whole blood assessed as reduction in LPS-induced PGE2 production preincubated for 30 mins followed by LPS stimulation for 20 to 24 hrs by LC/MS/MS analysis

Prostaglandin E synthase [2] = molecular target: T1, Prostaglandin E synthase; test: Inhibition of mPGES-1 in human A549 cells assessed as reduction in recombinant human interleukin-1 beta-induced PGE2 production preincubated for 30 mins measured after 18 hrs by ELISA; format: cell-based
Prostaglandin E synthase [3] = molecular target: T1, Prostaglandin E synthase; test: Inhibition of human mPGES-1 expressed in 293E cells assessed as reduction in conversion of PGH2 to PGE2 after 1.5 min by LC/MS analysis; format: cell-based
[4] = Drug metabolism in dog liver microsomes at 4 uM; format: ADME, Canis lupus familiaris; details: read-out: Drug metabolism
[5] = Clearance in Beagle dog at 1 mg/kg, iv; format: ADME, organism-based, Canis lupus familiaris; details: in vivo
[6] = Half life in rat at 1 mg/kg, iv; format: ADME, organism-based; details: in vivo
CYP2C9 = CYP2C9 (Homo sapiens, UniProt P11712); test: Inhibition of CYP2C9 in human hepatic microsomes assessed as reduction in probe substrate metabolism at 10 uM; format: ADME; details: liver microsomes
Sequence of CYP2C9 (P11712 whole entry): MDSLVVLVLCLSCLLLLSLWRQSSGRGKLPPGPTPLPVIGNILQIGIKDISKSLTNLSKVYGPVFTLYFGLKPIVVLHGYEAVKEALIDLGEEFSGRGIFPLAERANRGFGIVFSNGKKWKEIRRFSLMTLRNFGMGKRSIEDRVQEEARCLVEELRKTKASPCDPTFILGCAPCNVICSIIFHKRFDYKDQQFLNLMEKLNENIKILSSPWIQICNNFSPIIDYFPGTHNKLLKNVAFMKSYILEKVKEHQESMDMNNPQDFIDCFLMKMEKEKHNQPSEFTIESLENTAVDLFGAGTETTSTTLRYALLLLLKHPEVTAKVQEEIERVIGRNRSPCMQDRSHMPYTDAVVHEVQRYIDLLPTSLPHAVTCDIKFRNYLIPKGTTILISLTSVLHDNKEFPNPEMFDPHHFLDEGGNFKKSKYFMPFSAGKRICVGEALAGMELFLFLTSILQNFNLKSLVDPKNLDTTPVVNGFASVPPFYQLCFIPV

CYP3A4 [7] = molecular target: T2, CYP3A4 (Homo sapiens, UniProt P08684); test: Time dependent inhibition of CYP3A4 in human hepatic microsomes assessed as reduction in probe substrate metabolism at 10 uM; format: ADME; details: liver microsomes, read-out: TDI
T2 sequence (P08684 whole entry): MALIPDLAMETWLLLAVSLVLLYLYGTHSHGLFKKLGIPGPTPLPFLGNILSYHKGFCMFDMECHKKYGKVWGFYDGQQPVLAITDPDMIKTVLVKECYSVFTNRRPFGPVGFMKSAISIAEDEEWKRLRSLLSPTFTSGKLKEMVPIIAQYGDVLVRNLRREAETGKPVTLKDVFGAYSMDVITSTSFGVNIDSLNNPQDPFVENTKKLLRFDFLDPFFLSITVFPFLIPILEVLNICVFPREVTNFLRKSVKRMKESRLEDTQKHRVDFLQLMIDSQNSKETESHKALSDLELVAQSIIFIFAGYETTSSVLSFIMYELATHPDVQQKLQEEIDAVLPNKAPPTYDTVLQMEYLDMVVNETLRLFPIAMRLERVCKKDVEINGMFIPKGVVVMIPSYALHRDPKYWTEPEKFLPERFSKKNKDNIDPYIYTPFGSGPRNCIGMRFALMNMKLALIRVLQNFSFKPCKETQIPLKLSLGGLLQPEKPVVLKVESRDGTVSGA

[8] = Oral bioavailability in Beagle dog at 15 mg/kg; format: ADME, organism-based, Canis lupus familiaris; details: in vivo
[9] = Drug metabolism in human liver microsomes at 4 uM; format: ADME; details: read-out: Drug metabolism
Prostaglandin E synthase [10] = molecular target: T3, Prostaglandin E synthase (Canis lupus familiaris, UniProt A0SYQ0); test: Inhibition of dog mPGES-1
T3 sequence (A0SYQ0 whole entry): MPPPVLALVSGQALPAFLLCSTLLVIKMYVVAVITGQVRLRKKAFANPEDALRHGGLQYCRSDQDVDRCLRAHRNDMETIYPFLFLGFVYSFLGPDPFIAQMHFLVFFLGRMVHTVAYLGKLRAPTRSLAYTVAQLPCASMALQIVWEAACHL

CYP2D6 = CYP2D6 (Homo sapiens, UniProt P10635); test: Inhibition of CYP2D6 in human hepatic microsomes assessed as reduction in probe substrate metabolism at 10 uM; format: ADME; details: liver microsomes
Sequence of CYP2D6 (P10635 whole entry): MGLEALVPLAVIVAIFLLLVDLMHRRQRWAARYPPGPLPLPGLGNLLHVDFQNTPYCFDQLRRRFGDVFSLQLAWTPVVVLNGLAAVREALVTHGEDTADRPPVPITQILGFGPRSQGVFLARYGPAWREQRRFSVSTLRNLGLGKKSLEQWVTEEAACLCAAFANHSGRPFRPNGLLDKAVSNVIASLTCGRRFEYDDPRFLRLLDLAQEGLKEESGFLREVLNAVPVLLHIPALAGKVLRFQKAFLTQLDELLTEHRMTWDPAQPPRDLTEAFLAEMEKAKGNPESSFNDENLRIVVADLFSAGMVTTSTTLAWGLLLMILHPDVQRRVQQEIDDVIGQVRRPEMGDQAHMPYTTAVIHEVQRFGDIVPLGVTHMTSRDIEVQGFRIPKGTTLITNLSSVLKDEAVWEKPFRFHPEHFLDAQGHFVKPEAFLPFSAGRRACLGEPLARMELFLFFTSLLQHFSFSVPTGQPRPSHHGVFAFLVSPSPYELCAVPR

[11] = Volume of distribution at steady state in rat at 1 mg/kg, iv; format: ADME, organism-based; details: in vivo, read-out: Vdss
[12] = Time at which plasma concentration remains above dog whole blood IC50 level in Beagle dog at 3 mg/kg, po; format: ADME, organism-based, Canis lupus familiaris; details: in vivo
CYP3A4 [13] = molecular target: T2, CYP3A4; test: Inhibition of CYP3A4 in human hepatic microsomes assessed as reduction in probe substrate metabolism at 10 uM; format: ADME; details: liver microsomes
[14] = Clearance in rat at 1 mg/kg, iv; format: ADME, organism-based; details: in vivo
[15] = Cmax in rat at 5 mg/kg, po; format: ADME, organism-based; design: dose 5 mg/kg, route oral; details: in vivo
[16] = Volume of distribution at steady state in Beagle dog at 1 mg/kg, iv; format: ADME, organism-based, Canis lupus familiaris; details: in vivo, read-out: Vdss
[17] = Oral bioavailability in rat at 5 mg/kg; format: ADME, organism-based; details: in vivo
Prostaglandin E synthase [18] = molecular target: T3, Prostaglandin E synthase; test: Inhibition of mPGES-1 in dog whole blood; format: tissue-based
[19] = Drug metabolism in rat liver microsomes at 4 uM; format: ADME; details: read-out: Drug metabolism
[20] = Inhibition of rat mPGES-1
Prostaglandin E synthase [21] = molecular target: T1, Prostaglandin E synthase; test: Inhibition of mPGES-1 (unknown origin)
[22] = Time at which plasma concentration remains above human whole blood IC50 level in human at 200 mg, po; format: ADME

- IC50 (Prostaglandin E synthase [1]): 36 nM
- IC50 (Prostaglandin E synthase [2]): 72 nM
- IC50 (Prostaglandin E synthase [3]): 7 nM
SMILES: Cc1cccc2ccc(N3CC[C@H](C(=O)N[C@H]4CCCOC4)C(C)(C)C3)nc12

- IC50 (Prostaglandin E synthase [2]): 4500 nM
- IC50 (Prostaglandin E synthase [3]): 504 nM
SMILES: CC1(C)CN(c2ccc(C(F)(F)F)cc2)CC[C@H]1C(=O)N[C@H]1CCC[C@H](CO)C1

- IC50 (Prostaglandin E synthase [1]): 23 nM
- IC50 (Prostaglandin E synthase [2]): 30 nM
- IC50 (Prostaglandin E synthase [3]): 4 nM
SMILES: CC1(C)CN(c2ccc3cccc(Cl)c3n2)CC[C@@H]1C(=O)N[C@H]1CC[C@@H](CO)CC1

- IC50 (Prostaglandin E synthase [1]): 51 nM
- IC50 (Prostaglandin E synthase [2]): 23 nM
- IC50 (Prostaglandin E synthase [3]): 6 nM
SMILES: Cc1cccc2ccc(N3CC[C@H](C(=O)N[C@H]4CCOC4)C(C)(C)C3)nc12

- IC50 (Prostaglandin E synthase [1]): 7 nM
- metabolised at 4 µM [4]: 13%
- clearance [5]: 3.62 mL/min/kg
- IC50 (Prostaglandin E synthase [2]): 5 nM
- half-life [6]: 2.3 h
- inhibition at 10 µM (CYP2C9): 15%
- inhibition at 10 µM (CYP3A4 [7]): 39%
- bioavailability [8]: 74%
- metabolised at 4 µM [9]: 20%
- IC50 (Prostaglandin E synthase [10]): 11 nM
- inhibition at 10 µM (CYP2D6): 0%
- Vd [11]: 2.3 L/kg
- Time [12]: 24 h
- inhibition at 10 µM (CYP3A4 [13]): 10%
- clearance [14]: 14 mL/min/kg
- Cmax [15]: 2050 nM
- Vd [16]: 1.6 L/kg
- bioavailability [17]: 100%
- IC50 (Prostaglandin E synthase [18]): 23 to 28 nM
- metabolised at 4 µM [19]: 16%
- IC50 (Prostaglandin E synthase [3]): 2 nM
- IC50 [20]: 7870 nM
SMILES: Cc1cccc2ccc(N3CC[C@H](C(=O)N[C@H]4CCO[C@H](CO)C4)C(C)(C)C3)nc12

- IC50 (Prostaglandin E synthase [1]): 2 nM
- metabolised at 4 µM [4]: 60%
- IC50 (Prostaglandin E synthase [2]): 2 nM
- half-life [6]: 2.6 h
- inhibition at 10 µM (CYP2C9): 54%
- inhibition at 10 µM (CYP3A4 [7]): 75%
- metabolised at 4 µM [9]: 46%
- inhibition at 10 µM (CYP2D6): 4%
- Vd [11]: 1.4 L/kg
- inhibition at 10 µM (CYP3A4 [13]): 35%
- clearance [14]: 21 mL/min/kg
- Cmax [15]: 1450 nM
- bioavailability [17]: 54%
- metabolised at 4 µM [19]: 64%
- IC50 (Prostaglandin E synthase [3]): 1 nM
SMILES: Cc1cccc2ccc(N3CC[C@H](C(=O)N[C@H]4CC[C@@H](CO)CC4)C(C)(C)C3)nc12

- IC50 (Prostaglandin E synthase [1]): 5 nM
- IC50 (Prostaglandin E synthase [2]): 11 nM
- IC50 (Prostaglandin E synthase [3]): 3 nM
SMILES: CC1(C)CN(c2ccc(C(F)(F)F)cc2)CC[C@@H]1C(=O)N[C@H]1CCC[C@H](CO)C1

- IC50 (Prostaglandin E synthase [1]): 77 nM
- IC50 (Prostaglandin E synthase [2]): 89 nM
- IC50 (Prostaglandin E synthase [3]): 12 nM
SMILES: Cc1cccc2ccc(N3CC[C@H](C(=O)N[C@H](C)C(C)C)C(C)(C)C3)nc12

- IC50 (Prostaglandin E synthase [2]): > 10000 nM
- IC50 (Prostaglandin E synthase [3]): 3720 nM
SMILES: CC1(C)CN(c2ccc3cccc(Cl)c3n2)CC[C@H]1C(=O)N[C@H]1CC[C@@H](CO)CC1

- IC50 (Prostaglandin E synthase [21]): 25 nM
SMILES: Cc1cc2nc(N3CCC(C(=O)NC4CCCC4)CC3)n(-c3ccc(F)c(C)c3)c2cc1C

- IC50 (Prostaglandin E synthase [1]): 1 nM
- metabolised at 4 µM [4]: 57%
- IC50 (Prostaglandin E synthase [2]): 3 nM
- half-life [6]: 0.6 h
- inhibition at 10 µM (CYP2C9): 64%
- inhibition at 10 µM (CYP3A4 [7]): 82%
- metabolised at 4 µM [9]: 50%
- inhibition at 10 µM (CYP2D6): 0%
- Vd [11]: 1.3 L/kg
- inhibition at 10 µM (CYP3A4 [13]): 43%
- clearance [14]: 34 mL/min/kg
- Cmax [15]: 1430 nM
- bioavailability [17]: 30%
- metabolised at 4 µM [19]: 73%
- IC50 (Prostaglandin E synthase [3]): 1 nM
SMILES: Cc1cccc2ccc(N3CC[C@H](C(=O)N[C@H]4CCC[C@H](CO)C4)C(C)(C)C3)nc12

- Time [22]: 8 to 12 h
SMILES: Cc1ccc(-c2cc(C(F)(F)F)nn2-c2ccc(S(N)(=O)=O)cc2)cc1 [CELECOXIB]
